No end group written: not given here.
Key:
CD3ζ = assay: tyrosine phosphorylation of CD3ζ, immunoprecipitation and anti-phosphotyrosine immunoblot; assay type: cell-based, mouse
Protocol: (§1) Immunoprecipitation and Immunoblotting. Enriched primed T cells (2×10^6 cells) in a 24 well Corning plate were TCR-stimulated with 2C11 in the presence of α-MSH (30 pg/ml) under serum-free conditions for 15 minutes. The T cells were collected, placed in a microcentrifuge tube and washed once with 10 mM Tris buffered saline (TBS) and lysed for 30 minutes in 100 μl of ice cold lysate buffer (10 mM TBS, 1% NP-40, 0.5% sodium deoxycholate, 0.1% SDS, 100 μg/ml phenylmethylsulfonyl fluoride (PMSF), 60 μg/ml Aprotinin, and 1 mM sodium orthovanadate). The cells were passed through a 21 gauge needles three times, and an additional 2 μl of 10 mg/ml PMSF was added. The tubes were incubated for an additional 30 minutes on ice and were centrifuged for 20 minutes, 4° C., 13,000×g. The supernatant was collected and used as total cellular lysate. The protein concentration was measured, and added to equal amounts of protein lysate were 20 μg/ml anti-CD3ζ antibody, or anti-CD3ε antibody plus rabbit anti-hamster IgG antibody and incubated overnight at 4° C. The rabbit anti-hamster IgG was needed for the CD3ε immunoprecipitation, since much of the CD3ε was bound by 2C11 a hamster anti-mouse […] and hamster antibody weakly binds protein-G. Protein-G sepharose beads (Pharmacia, Piscataway, N.J.) were added to the antibody containing lysates and incubated for 1 hour at room temperature with end over end agitation. The beads were centrifuged and washed 4 times with 10 mM TBS containing 0.5% sodium deoxycholate. After the final wash the beads were resuspended in 20 μl of distilled water and 20 μl non-reducing SDS Tris-glycine sample buffer (Novex, San Diego, Calif.), boiled for 5 minutes and applied into two wells (20 μl) of a 8-16% Tris-glycine polyacrylamide gel (Novex).
Following electrophoresis in a Novex Xcell II minicell and blot module, the proteins were transferred from the gel onto a nitrocellulose membrane (Novex) by electroblotting. The membrane was blocked with 1% BSA in 0.01 M TBS for 1 hour room temperature. The blocked membrane was placed in a sealable bag containing 5 ml of alkaline-phosphatase conjugated anti-phosphotyrosine antibody PY20 diluted 1/2000 in 1% BSA-TBS buffer. The membrane was incubated overnight at room temperature. The PY20 blotted membrane was washed 3 times with wash buffer containing 1% BSA-TBS and 0.05% Tween-20 and incubated with alkaline phosphatase substrate NBT-BCIP (Sigma Chemical) until bands appeared. The membrane was washed with distilled water. In parallel, some lanes on the membrane were immunoblotted with anti-CD3ζ antibody and alkaline phosphatase conjugated anti-mouse IgG (Sigma Chemical) to detect the relative mobility of CD3ζ protein. Membranes were digitally photographed and analyzed using NIH Image software to integrate the band intensities relative to band area minus background. […]
(§2) The enriched primed T cells (2×10^6 cells) were incubated with anti-CD3 in the presence of α-MSH (30 pg/ml) for 15 minutes. […] The immunoprecipitates were analyzed by non-reducing SDS-PAGE (on a 8-16% gradient gel), followed by transfer to a nitrocellulose filter and immunoblotting with anti-phosphotyrosine antibody: (1) Unstimulated primed T cells treated with α-MSH; (2) Unstimulated primed T cells incubated in media alone; (3) Enriched primed T cells TCR-stimulated in the absence of α-MSH; (4) Enriched primed T cells TCR-stimulated in the presence of α-MSH. […]

CD3ε = assay: tyrosine phosphorylation of CD3ε, immunoprecipitation and anti-phosphotyrosine immunoblot; assay type: cell-based, mouse
Protocol: as §1
Following electrophoresis in a Novex Xcell II minicell and blot module, the proteins were transferred from the gel onto a nitrocellulose membrane (Novex) by electroblotting. The membrane was blocked with 1% BSA in 0.01 M TBS for 1 hour room temperature. […] Membranes were digitally photographed and analyzed using NIH Image software to integrate the band intensities relative to band area minus background. […]
as §2

[1] = TCR-stimulated primed T cells, α-MSH 30 pg/ml, 15 minutes (lane 4; without α-MSH 10)
[2] = TCR-stimulated primed T cells, α-MSH 30 pg/ml, 15 minutes, Example III (FIG. 18A)
[3] = unstimulated primed T cells, α-MSH 30 pg/ml, 15 minutes (lane 1; media alone 1)

α-melanocyte stimulating hormone (SYSMEHFRWGKPV; not fully specified; ends and bridges not checked; UniProt P01189 138-150, looked up) [α-MSH, synthetic α-MSH (Peninsula Laboratories); thirteen-amino acid neuropeptide derived from POMC]
increase in CD3ζ tyrosine phosphorylation (CD3ζ; TCR-stimulated primed T cells, versus stimulated in the absence of α-MSH): 6.7 fold | relative intensity of phosphotyrosine band, CD3ζ (CD3ζ; [1]): 67 | overall level of tyrosine phosphorylation of CD3ζ (CD3ζ; [2]): no significant change | stimulation of tyrosine phosphorylation of CD3ζ dimers (CD3ζ; unstimulated primed T cells): 4 fold | relative intensity of phosphotyrosine band, CD3ζ (CD3ζ; [3]): 4 | level of tyrosine phosphorylation of CD3ε chains (CD3ε; TCR-stimulated and unstimulated primed T cells, Example I (FIG. 7B)): no effect | relative intensity of phosphotyrosine band, CD3ε (CD3ε; [1]): 10 | overall level of tyrosine phosphorylation of CD3ε (CD3ε; [2]): no significant change | relative intensity of phosphotyrosine band, CD3ε (CD3ε; [3]): 1

— patent publication US20060127400A1, “Activation of regulatory T cells by alpha-melanocyte stimulating hormone” (THE SCHEPENS EYE RESEARCH INSTITUTE, INC., priority 1999, published 2006)
